Read-outs that look alike come from different tables or passages of the source.

One assay has as its target HIV integrase (Human immunodeficiency virus type 1 group M subtype B, UniProt P04585). Put plainly: HIV IN strand transfer assay. The format is biochemical.
A further assay deals with HIV RT polymerase (Human immunodeficiency virus type 1 group M subtype B, UniProt P04585). Nature of the assay: RT polymerase assay. It counts as biochemical, HIV-1.
Assay [1] addresses HIV RT-associated RNase H (Human immunodeficiency virus type 1 group M subtype B, UniProt P04585). It counts as biochemical, HIV-1.
[2] abbreviates: RNH IC50 HTS-2, HTS-2 substrate, measures DNA 3' end directed cleavage.
Setting [3] is: RNH IC50 HTS-3, HTS-3 substrate, measures RNA 5' end directed cleavage.
The mark [4] stands for this setting: RT RNase H IC50, Table 4, data with HTS-1 as substrate.

As usually defined, the IC50 is the point on the concentration scale where inhibition reaches its midpoint. As to `O=C(O)c1c[nH]cc(O)c1=O` [10a, 5-Hydroxy-4-oxo-1,4-dihydropyridine-3-carboxylic acid], the IC50 on HIV integrase was greater than 100 µM; against HIV RT polymerase, greater than 25 µM; on HIV RT polymerase (read-out: RT Pol IC50, Table 4) it was greater than 25 µM; in assay [1] (setting [2]) it was greater than 25 µM; in assay [1] (setting [3]) it was greater than 25 µM; in assay [1] (setting [4]), greater than 25 µM. The “RT Pol IC50” value at HIV RT polymerase (Table 1, poly(rA)-oligo(dT)16, [3H]-TTP) is “no inhibitory activity”.

Consider `O=C(O)c1cn(-c2ccccc2)cc(O)c1=O` [10b, 5-Hydroxy-4-oxo-1-phenyl-1,4-dihydropyridine-3-carboxylic acid], for which the 50% inhibitory concentration (IC50) is greater than 25 µM against HIV RT polymerase; greater than 25 µM at HIV RT polymerase (read-out: RT Pol IC50, Table 4); greater than 25 µM in assay [1] (setting [2]); greater than 25 µM in assay [1] (setting [3]); greater than 25 µM in assay [1] (setting [4]).

As to `O=C(O)c1cn(Cc2ccccc2)cc(O)c1=O` [10c, 1-Benzyl-5-hydroxy-4-oxo-1,4-dihydropyridine-3-carboxylic acid], the IC50 against HIV RT polymerase is greater than 25 µM; at HIV RT polymerase (read-out: RT Pol IC50, Table 4), greater than 25 µM; in assay [1] (setting [2]), greater than 25 µM; in assay [1] (setting [3]) it was greater than 25 µM; in assay [1] (setting [4]), greater than 25 µM.

Take `O=C(O)c1cn(Cc2ccc(F)cc2)cc(O)c1=O` [10d, 1-(4-Fluorobenzyl)-5-hydroxy-4-oxo-1,4-dihydropyridine-3-carboxylic acid]: the IC50 on HIV RT polymerase is greater than 25 µM; on HIV RT polymerase (read-out: RT Pol IC50, Table 4), greater than 25 µM; in assay [1] (setting [2]), greater than 25 µM; in assay [1] (setting [3]) it was greater than 25 µM.

Take `CC(c1ccc(F)cc1)n1cc(O)c(=O)c(C(=O)O)c1` (centres unmarked) [10e, 1-(1-(4-Fluorophenyl)ethyl)-5-hydroxy-4-oxo-1,4-dihydropyridine-3-carboxylic acid]: the IC50 at HIV RT polymerase was greater than 25 µM; at HIV RT polymerase (read-out: RT Pol IC50, Table 4), greater than 25 µM; in assay [1] (setting [2]), greater than 25 µM; in assay [1] (setting [3]) it was greater than 25 µM.

In the case of `Cc1cc(Cn2cc(O)c(=O)c(C(=O)O)c2)ccc1F` [10f, 1-(4-Fluoro-3-methylbenzyl)-5-hydroxy-4-oxo-1,4-dihydropyridine-3-carboxylic acid], the IC50 against HIV integrase is greater than 100 µM; against HIV RT polymerase, greater than 25 µM; on HIV RT polymerase (read-out: RT Pol IC50, Table 4) it was greater than 25 µM; in assay [1] (setting [2]), greater than 25 µM; in assay [1] (setting [3]) it was greater than 25 µM.

Take `O=C(O)c1cn(Cc2ccc(F)cc2F)cc(O)c1=O` [10g, 1-(2,4-Difluorobenzyl)-5-hydroxy-4-oxo-1,4-dihydropyridine-3-carboxylic acid]: the IC50 was greater than 100 µM against HIV integrase; greater than 25 µM against HIV RT polymerase; greater than 25 µM on HIV RT polymerase (read-out: RT Pol IC50, Table 4); greater than 25 µM in assay [1] (setting [2]); greater than 25 µM in assay [1] (setting [3]).

With `O=C(O)c1cn(Cc2ccc(Cl)c(Cl)c2)cc(O)c1=O` [10i, 1-(3,4-Dichlorobenzyl)-5-hydroxy-4-oxo-1,4-dihydropyridine-3-carboxylic acid], the IC50 at HIV RT polymerase is greater than 25 µM; at HIV RT polymerase (read-out: RT Pol IC50, Table 4), greater than 25 µM; in assay [1] (setting [2]) it was greater than 25 µM; in assay [1] (setting [3]), greater than 25 µM.

Regarding `O=C(O)c1cn(Cc2ccc(Cl)cc2Cl)cc(O)c1=O` [10j, 1-(2,4-Dichlorobenzyl)-5-hydroxy-4-oxo-1,4-dihydropyridine-3-carboxylic acid], the IC50 at HIV RT polymerase was greater than 25 µM; at HIV RT polymerase (read-out: RT Pol IC50, Table 4), greater than 25 µM; in assay [1] (setting [2]), greater than 25 µM; in assay [1] (setting [3]), greater than 25 µM.

With `O=C(O)c1cn(Cc2ccc(F)c(Cl)c2)cc(O)c1=O` [10k, 1-(3-Chloro-4-fluorobenzyl)-5-hydroxy-4-oxo-1,4-dihydropyridine-3-carboxylic acid], the half-inhibitory concentration (IC50) is greater than 25 µM against HIV RT polymerase; greater than 25 µM on HIV RT polymerase (read-out: RT Pol IC50, Table 4); greater than 25 µM in assay [1] (setting [2]); greater than 25 µM in assay [1] (setting [3]).

On to `O=C(O)c1cn(Cc2ccc(Br)cc2)cc(O)c1=O` [10l, 1-(4-Bromobenzyl)-5-hydroxy-4-oxo-1,4-dihydropyridine-3-carboxylic acid], for which the IC50 was greater than 100 µM against HIV integrase; greater than 25 µM against HIV RT polymerase; greater than 25 µM on HIV RT polymerase (read-out: RT Pol IC50, Table 4); greater than 25 µM in assay [1] (setting [2]); greater than 25 µM in assay [1] (setting [3]); greater than 25 µM in assay [1] (setting [4]).

With `O=C(O)c1cn(Cc2ccncc2)cc(O)c1=O` [10n, 5-Hydroxy-4-oxo-1-(pyridin-4-ylmethyl)-1,4-dihydropyridine-3-carboxylic acid], the IC50 against HIV integrase was greater than 100 µM; against HIV RT polymerase, greater than 25 µM; at HIV RT polymerase (read-out: RT Pol IC50, Table 4) it was greater than 25 µM; in assay [1] (setting [2]), greater than 25 µM; in assay [1] (setting [3]), greater than 25 µM; in assay [1] (setting [4]), greater than 25 µM.

With `CS(=O)(=O)c1ccc(Cn2cc(O)c(=O)c(C(=O)O)c2)cc1` [10o, 5-Hydroxy-1-(4-(methylsulfonyl)benzyl)-4-oxo-1,4-dihydropyridine-3-carboxylic acid], the half-inhibitory concentration (IC50) against HIV RT polymerase was greater than 25 µM; on HIV RT polymerase (read-out: RT Pol IC50, Table 4), greater than 25 µM; in assay [1] (setting [2]), greater than 25 µM; in assay [1] (setting [3]), greater than 25 µM; in assay [1] (setting [4]), greater than 25 µM.

In the case of `O=C(O)c1ccc(Cn2cc(O)c(=O)c(C(=O)O)c2)cc1` [10p, 1-(4-Carboxybenzyl)-5-hydroxy-4-oxo-1,4-dihydropyridine-3-carboxylic acid], the IC50 was greater than 25 µM on HIV RT polymerase; greater than 25 µM on HIV RT polymerase (read-out: RT Pol IC50, Table 4); greater than 25 µM in assay [1] (setting [2]); greater than 25 µM in assay [1] (setting [3]); greater than 25 µM in assay [1] (setting [4]).

In turn, `NS(=O)(=O)c1ccc(-c2ccc(Cn3cc(O)c(=O)c(C(=O)O)c3)cc2)cc1` [10y, 5-Hydroxy-4-oxo-1-((4'-sulfamoyl-[1,1'-biphenyl]-4-yl)methyl)-1,4-dihydropyridine-3-carboxylic acid] gave a concentration for half-maximal inhibition (IC50) at HIV integrase greater than 100 µM.

In the case of `CCOC(=O)c1cn(Cc2ccc(F)cc2)cc(O)c1=O` [compound 18, Ethyl-1-(4-fluorobenzyl)-5-hydroxy-4-oxo-1,4-dihydropyridine-3-carboxylate], the concentration for half-maximal inhibition (IC50) on HIV integrase is greater than 100 µM; at HIV RT polymerase, greater than 25 µM; on HIV RT polymerase (read-out: RT Pol IC50, Table 4), greater than 25 µM; in assay [1] (setting [2]) it was greater than 25 µM; in assay [1] (setting [3]), greater than 25 µM; in assay [1] (setting [4]), greater than 25 µM.

In the case of `NC(=O)c1cn(Cc2ccc(F)cc2)cc(O)c1=O` [compound 20, 1-(4-Fluorobenzyl)-5-hydroxy-4-oxo-1,4-dihydropyridine-3-carboxamide], the 50% inhibitory concentration (IC50) against HIV RT polymerase was greater than 25 µM; at HIV RT polymerase (read-out: RT Pol IC50, Table 4) it was greater than 25 µM; in assay [1] (setting [2]), greater than 25 µM; in assay [1] (setting [3]), greater than 25 µM.
